Assay results from patent publication US20250084087A1, “BICYCLIC HETEROCYCLES AS MRGPRX2 ANTAGONISTS” (Incyte Corporation, priority 2023, published 2025).

Columns and labels:
Type in all cases: cell-based
MRGPRX2 [1] = target: T1, MRGPRX2 (Homo sapiens, UniProt Q96LB1); test: MRGPRX2 FLIPR calcium mobilization assay; parameters: host or cells: CHO-K1; details: CHO-K1 cells stably expressing human MRGPRX2; Ca2+ release; agonist Cortistatin-14 at EC80
T1 sequence (Q96LB1 1-330): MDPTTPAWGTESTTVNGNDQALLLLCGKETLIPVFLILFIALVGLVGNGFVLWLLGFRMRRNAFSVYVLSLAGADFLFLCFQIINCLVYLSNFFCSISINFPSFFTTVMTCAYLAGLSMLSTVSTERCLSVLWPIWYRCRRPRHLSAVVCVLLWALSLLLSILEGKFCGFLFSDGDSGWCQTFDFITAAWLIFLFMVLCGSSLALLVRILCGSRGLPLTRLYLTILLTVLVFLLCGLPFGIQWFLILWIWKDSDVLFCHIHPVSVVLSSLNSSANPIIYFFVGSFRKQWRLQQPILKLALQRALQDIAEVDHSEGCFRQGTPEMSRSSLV
Experimental: Example A. MRGPRX2 FLIPR Calcium Mobilization Assay
Chinese hamster ovary (CHO-K1) cells stably expressing human MRGPRX2 were purchased from Genescript (Piscataway, NJ). The cells were maintained in culture medium (Ham's F-12K) containing 10% (v/v) FBS, 200 μg/mL Zeocin, 100 units/mL penicillin G and 100 μg/mL streptomycin (Life Technologies, Carlsbad, CA). For the assay, the cells were harvested and resuspended with culture medium without Zeocin before plating at 8000 cells per well in 20 μL in 384-well black clear bottom cell culture plates (VWR, Radnor, PA). After 24 hour culture at 37° C. and 5% CO2, the cells were loaded with 20 μL/well of calcium dye (FLIPR Calcium 6 Assay Kit, Molecular Devices, San Jose, CA) diluted in loading buffer (1× Hank's Balanced Salt Solution (HBSS), 5 mM probenecid, 20 mM 4-(2-hydroxyethyl)-1-piperazineethanesulfonic acid (HEPES), pH 7.4, VWR, Radnor, PA) followed with 45 min. incubation at 37° C. and 40 min. at r.t. in the dark. Cells were then treated with the addition of 10 uL/well test compounds with a range of increasing concentrations diluted in the assay buffer (1×HBSS, 20 mM HEPES, pH 7.4, VWR, Radnor, PA) with FLIPR Penta (Molecular Devices. San Jose, CA) and incubated for 30 min. at r.t. Ca^2+ release was measured with FLIPR Penta with 10 seconds basal fluorescence measurement, then 12.5 μL of 5× agonist Cortistatin-14 (Tocris, Minneapolis, MN) at final concentration corresponding to the EC80 were added followed with continued fluorescence signal monitoring for an additional 110 seconds. The base line adjusted (median of first 10s base line) max value of the Relative Fluorescence Unit (RFU) was plotted against compound concentrations. Wells with no compound were served as the positive controls, and wells with high concentration of reference antagonist were used as negative controls. IC50 curves were globally fitted with 3- or 4-parameter Hill equation in a Genedata Screener (Genedata Basel, Switzerland).

MRGPRX2 [2] = target: T1, MRGPRX2; test: MRGPRX2 IP1 HTRF assay; parameters: host or cells: CHO-K1; details: CHO-K1 cells stably expressing human MRGPRX2; IP1 accumulation; agonist Cortistatin 14 1 μM
How it was run: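 CHO-K1 cells stably expressing human MRGPRX2, preincubated with compound 1 h at 37 °C, then stimulated with 1 μM Cortistatin 14 for 1 h. IP1 measured by HTRF against standard curve, normalized to DMSO and reference antagonist controls; IC50 from 3- or 4-parameter Hill fit.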

MRGPRX2 [3] = target: T1, MRGPRX2; test: MRGPRX2 β-Arrestin recruitment assay (PathHunter); parameters: host or cells: CHO-K1 (PathHunter); details: PathHunter CHO-K1 MRGPRX2 β-Arrestin cell line; agonist Cortistatin 14 0.25 μM
How it was run: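 CHO-K1 PathHunter cells co-expressing ProLink-tagged MRGPRX2 and enzyme-acceptor-tagged β-arrestin were preincubated with compound 1 h at 37° C., then stimulated with cortistatin-14 (0.25 μM final) for 90 min. Enzyme-complementation luminescence read after 1 h detection; data normalized to DMSO and reference antagonist, IC50 from 3- or 4-parameter Hill fit.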

IC50 (MRGPRX2 [1]) | IC50 (MRGPRX2 [2]) | IC50 (MRGPRX2 [3]) | Compound
0.1 to 100 nM | 0.1 to 100 nM | 0.1 to 100 nM | [2H]C([2H])([2H])NC(=O)N1CC(CNc2cc(C(F)(F)F)nc3cc(C(F)(F)F)nn23)(c2ccc(F)cn2)C1 [Example 61, 3-(((2,5-Bis(trifluoromethyl)pyrazolo[1,5-a]pyrimidin-7-yl)amino)methyl)-3-(5-fluoropyridin-2-yl)-N-(methyl-d3)azetidine-1-carboxamide]
0.1 to 100 nM | 0.1 to 100 nM | 0.1 to 100 nM | NC(=O)N1CC(CNc2cc(C(F)(F)F)nc3cc(Cl)nn23)(c2ccc(F)cc2)C1 [Example 57, 3-(((2-Chloro-5-(trifluoromethyl)pyrazolo[1,5-a]pyrimidin-7-yl)amino)methyl)-3-(4-fluorophenyl)azetidine-1-carboxamide]
0.1 to 100 nM | 0.1 to 100 nM | 0.1 to 100 nM | NS(=O)(=O)N1CC(CNc2cc(C(F)(F)F)nc3cc(C(F)(F)F)nn23)(c2ccc(F)cn2)C1 [Example 59, 3-(((2,5-Bis(trifluoromethyl)pyrazolo[1,5-a]pyrimidin-7-yl)amino)methyl)-3-(5-fluoropyridin-2-yl)azetidine-1-sulfonamide]
0.1 to 100 nM | 100 to 1000 nM | 100 to 1000 nM | NS(=O)(=O)N1CC(CNc2cc(C(F)(F)F)nc3cc(C4CC4)nn23)(n2cccn2)C1 [Example 94, 3-(((2-Cyclopropyl-5-(trifluoromethyl)pyrazolo[1,5-a]pyrimidin-7-yl)amino)methyl)-3-(1H-pyrazol-1-yl)azetidine-1-sulfonamide]
0.1 to 100 nM | 100 to 1000 nM |  | Cc1cc2nc(C(F)(F)F)cc(NCC3(c4ccccc4)CCOC3)n2n1 (stereo not drawn) [Example 77, 2-Methyl-N-((3-phenyltetrahydrofuran-3-yl)methyl)-5-(trifluoromethyl)pyrazolo[1,5-a]pyrimidin-7-amine]
0.1 to 100 nM | 0.1 to 100 nM |  | CNC(=O)N1CCC(CNc2cccc3nc(C(F)(F)C(F)(F)F)cn23)(c2ccccc2)CC1 [Example 26, N-Methyl-4-(((2-(perfluoroethyl)imidazo[1,2-a]pyridin-5-yl)amino)methyl)-4-phenylpiperidine-1-carboxamide]
100 to 1000 nM | > 1000 nM |  | N#Cc1cc2nc(Cl)cc(NCC3(c4ccccc4)CCNCC3)n2n1 [Example 104, 5-Chloro-7-(((4-phenylpiperidin-4-yl)methyl)amino)pyrazolo[1,5-a]pyrimidine-2-carbonitrile]
0.1 to 100 nM | 0.1 to 100 nM |  | CNC(=O)N1CCC(CNc2cc(Cl)cc3nc(C(F)(F)F)cn23)(c2ccccc2)CC1 [Example 27, 4-(((7-Chloro-2-(trifluoromethyl)imidazo[1,2-a]pyridin-5-yl)amino)methyl)-N-methyl-4-phenylpiperidine-1-carboxamide]
0.1 to 100 nM | 100 to 1000 nM |  | CNC(=O)N1CCC(CNc2cccc3nc(C(C)C)cn23)(c2ccccc2)CC1 [Example 29, 4-(((2-Isopropylimidazo[1,2-a]pyridin-5-yl)amino)methyl)-N-methyl-4-phenylpiperidine-1-carboxamide]

Further lines, the compound ahead of its results:

Compound | IC50 (MRGPRX2 [1]) | IC50 (MRGPRX2 [2]) | IC50 (MRGPRX2 [3])
NS(=O)(=O)N1CCC(CNc2cc(C(F)(F)F)nc3cc(C(F)(F)F)nn23)(c2ccccc2)CC1 [Example 6, 4-(((2,5-Bis(trifluoromethyl)pyrazolo[1,5-a]pyrimidin-7-yl)amino)methyl)-4-phenylpiperidine-1-sulfonamide] | 0.1 to 100 nM | 0.1 to 100 nM | 0.1 to 100 nM
Cc1cc2nc(C(F)(F)F)cc(NCC3(c4ccccc4)CCNCC3)n2n1 [Example 8, 2-Methyl-N-((4-phenylpiperidin-4-yl)methyl)-5-(trifluoromethyl)pyrazolo[1,5-a]pyrimidin-7-amine] | 0.1 to 100 nM | 100 to 1000 nM | 0.1 to 100 nM
CC(=O)N1CCC(CNc2cccc3nc(C(F)(F)F)cn23)(c2ccccc2)CC1 [Example 20, 1-(4-Phenyl-4-(((2-(trifluoromethyl)imidazo[1,2-a]pyridin-5-yl)amino)methyl)piperidin-1-yl)ethan-1-one] | 0.1 to 100 nM | 0.1 to 100 nM | 0.1 to 100 nM
NC(=O)N1CCC(CNc2cc(C(F)(F)F)nc3cc(Br)nn23)(c2ccc(F)cn2)CC1 [Example 22, 4-(((2-Bromo-5-(trifluoromethyl)pyrazolo[1,5-a]pyrimidin-7-yl)amino)methyl)-4-(5-fluoropyridin-2-yl)piperidine-1-carboxamide] | 0.1 to 100 nM | 0.1 to 100 nM | 
COC(=O)N1CCC(CNc2cc(C(F)(F)F)nc3cc(C(F)(F)F)nn23)(c2ccccc2)CC1 [Example 14, Methyl 4-(((2,5-bis(trifluoromethyl)pyrazolo[1,5-a]pyrimidin-7-yl)amino)methyl)-4-phenylpiperidine-1-carboxylate] | 0.1 to 100 nM | 100 to 1000 nM | 
Cc1cc(NCC2(c3ccccc3)CCN(C(N)=O)CC2)n2nc(C(F)(F)F)nc2n1 [Example 7, 4-(((5-Methyl-2-(trifluoromethyl)-[1,2,4]triazolo[1,5-a]pyrimidin-7-yl)amino)methyl)-4-phenylpiperidine-1-carboxamide] | 0.1 to 100 nM | 100 to 1000 nM | 
NS(=O)(=O)N1CCC(CNc2nc(Cl)cc3nc(C(F)(F)F)cn23)(c2ccccc2)CC1 [Example 5, 4-(((7-Chloro-2-(trifluoromethyl)imidazo[1,2-c]pyrimidin-5-yl)amino)methyl)-4-phenylpiperidine-1-sulfonamide] | 0.1 to 100 nM | 0.1 to 100 nM | 
NC(=O)N1CCC(CNc2cc(C(F)(F)F)nc3cc(C(F)(F)F)nn23)(c2ccccc2)CC1 [Example 16, 4-(((2,5-Bis(trifluoromethyl)pyrazolo[1,5-a]pyrimidin-7-yl)amino)methyl)-4-phenylpiperidine-1-carboxamide] | 0.1 to 100 nM | 0.1 to 100 nM | 
N#CCC(=O)N1CCC(CNc2cccc3nc(C(F)(F)F)cn23)(c2ccc(F)cn2)CC1 [Example 24, 3-(4-(5-Fluoropyridin-2-yl)-4-(((2-(trifluoromethyl)imidazo[1,2-a]pyridin-5-yl)amino)methyl)piperidin-1-yl)-3-oxopropanenitrile] | 0.1 to 100 nM | 100 to 1000 nM | 
NC(=O)N1CC(CNc2cccc3nc(C(F)(F)F)nn23)(n2cc(F)cn2)C1 [Example 12, 3-(4-Fluoro-1H-pyrazol-1-yl)-3-(((2-(trifluoromethyl)-[1,2,4]triazolo[1,5-a]pyridin-5-yl)amino)methyl)azetidine-1-carboxamide] | 0.1 to 100 nM | 100 to 1000 nM | 
NS(=O)(=O)N1CC(CNc2cccc3nc(C(F)(F)F)nn23)(n2cc(F)cn2)C1 [Example 11, 3-(4-Fluoro-1H-pyrazol-1-yl)-3-(((2-(trifluoromethyl)-[1,2,4]triazolo[1,5-a]pyridin-5-yl)amino)methyl)azetidine-1-sulfonamide] | 0.1 to 100 nM | 0.1 to 100 nM | 
NC(=O)N1CC(CNc2cc(C(F)(F)F)nc3cc(C(F)(F)F)nn23)(n2cc(F)cn2)C1 [Example 10, 3-(((2,5-Bis(trifluoromethyl)pyrazolo[1,5-a]pyrimidin-7-yl)amino)methyl)-3-(4-fluoro-1H-pyrazol-1-yl)azetidine-1-carboxamide] | 0.1 to 100 nM | 0.1 to 100 nM | 
OCCN1CCC(CNc2cccc3nc(C(F)(F)F)cn23)(c2ccc(F)cn2)CC1 [Example 23, 2-(4-(5-Fluoropyridin-2-yl)-4-(((2-(trifluoromethyl)imidazo[1,2-a]pyridin-5-yl)amino)methyl)piperidin-1-yl)ethan-1-ol] | 100 to 1000 nM | 100 to 1000 nM | 
